In US5744499A, “Apoptosis-modulating factors influencing the intracellular concentration of methional/malondialdehyde” (Centre International de Recherches Dermatologiques Galderma, priority 1994, dated 1998):
Values belong to the molecule of their own block, whether it stands above or below them.

Tests used:
HeLa cells [1] = experiment: 2-oxobutyrate reversal of MTOB-induced growth inhibition of HeLa cells (methionine-free medium); type: cell-based
Description: HeLa cells (0.5×10^6 per Petri dish) were cultured in 3 ml of a minimum essential Eagle medium not containing methionine and containing 10% by weight dialyzed fetal calf serum. After four hours, 2-oxobutyrate (10 mM-40 mM) in the presence of 2 mM 4-methylthio-2-oxobutanoic acid (MTOB) were added. After three days at 37° C., the cells were washed twice in a buffered, phosphatized saline medium having a pH of 7.5 (PBS medium) and collected in the same type of buffer. Cell growth was measured in the same manner as in the preceding example.
Beginning at a level of 10 mM 2-oxobutyrate, inhibition decreased 2-3 times.

BAF3 cells [2] = experiment: Apoptosis of BAF3 cells, terminal deoxynucleotidyl transferase (TdT) test, flow cytometry; type: cell-based, mouse; conditions: 24 hours; compound A 50 μM, BCNU 40 μg/ml, or both; control 0.2
Description: Effect of BCNU and of an inhibitor of the transaminase implicated in the transformation of 4-methylthio-2-oxobutanoic acid into methionine on apoptosis:
The DNA strand cuttings were marked with biotinylated dUTP (detected by avidin fluorescein), in situ, in the cells rendered permeable and fixed using the terminal DNA transferase deoxynucleotidyl test (TdT), as described in Gorczyca et al, Cancer Res., 53, 1945-1951 (1993). 1.5×10^6 BAF3 cells (cell line described above) seeded in 3 ml of a culture medium containing IL3 (Dulbecco-modified Eagle medium containing 6% fetal calf serum and 5% of a medium treated with Wehl-3B cells used in the IL3 source). The cells were incubated in the presence of compound A in a concentration of 50 μM, 40 μg/ml of BCNU, and the mixture of these two compounds (50 μM of compound A+40 μg/ml of BCNU) or in the absence of these two compounds (control). After a 24-hour incubation period of time, the cells were washed in PBS buffer and fixed in formaldehyde, then in ethanol, and maintained a -20° C. for 3 days. Next, the cells were again placed in suspension in 50 μl of a solution containing […] sodium cacodylate, pH=7.5, 1 mM CoCl2, 0.1 mM dithiothreitol, 0.05 mg/ml Bovine Serum Albumin, 10 units TdT (from Boerhringer calf thymus), 0.5 nmol dCTP, and 0.5 nmol dGTP for one hour at 37° C. […]

[3] = test system: murine B16 Fl melanoma cells; experiment: Survival of mice grafted with B16 melanoma cells; type: in vivo, mouse; conditions: BCNU 0.1 mg/kg, Compound A 25 mg/kg
Description: At t=0 day, 10^5 murine B16 Fl melanoma cells were injected into B6D2Fl mice (from the IFFA CREDO Company, France).
Table 5 reports the results corresponding to averages of the results obtained on three treated mice.
For the regimens containing multiple compounds, the quantities of each of the compounds used were identical to those of the regimens using the compounds by themselves.
Survival time was recorded beginning at t=0 day, as indicated above.
BCNU corresponds to N,N-Bis(2-chloroethyl)-N-nitrosourea. Compound A corresponds to the compound having formula (9), wherein X is a --OH radical.
Between the two regimens, the latter (to which methional was added) accounted for one-third of the mice surviving more than 60 days. The "average survival time" is the mean of the number of mice dying over the course of the experiment, i.e., within 60 days.
The procedure of the previous example was repeated, but the regimens and numbers of mice treated varied.
With respect to this latter regiment, the quantities corresponded to the quantities of compounds used alone. The percentage of long-term survivors corresponded to the percentage of mice which survived beyond 60 days.

[4] = test system: reactive oxygenated substances (H2 O2 and HO^-); experiment: Production of reactive oxygenated substances (H2O2 and HO-) in BAF3 cells, DCFH-DA flow cytometry; type: cell-based, mouse; conditions: for Fluorescence/10^6 cells: compound A 0 μM
HeLa cells [5] = experiment: Effect of metabolites on the growth of HeLa cells; type: cell-based; conditions: Homo sapiens, 72 h, three days at 37° C., estimated by protein content, average of 3 or 4 experiments, read-out: IC50 (concentration required to inhibit cell growth by 50%)
Description: HeLa cells (0.5×10^6 per Petri dish) were cultured in 3 ml of a minimum essential Eagle medium containing 10% by weight dialyzed fetal calf serum. After four hours, methional (10 μM-1 mM), methionol (10 μM-20 mM), methylthiopropionic acid (MTPA) (1 μM-20 mM), L-methionine (1 μM-20 mM) or 4-methylthio-2-oxobutanoic acid (MTOB) (1 μM-20 mM) were added to each of the three dishes. After three days at 37° C., the cells were washed twice in a buffered, phosphatized saline medium having a pH of 7.5 (PBS medium) and collected in the same type of buffer.
Cell growth was assessed by measuring protein content (see technique described in O. H. Lowry, N. J. Rosebrouh, A. L. Farr, and R. J. Randall, J. Biol. Chem., 193, 265-275 (1951)) or the DNA content in the lysate using a bisbenzimide trihydrochloride solution (Hoechst 33258) (see W. D. Jarvis, R. N. Kolesnick, F. A. Fornari, R. S. Traylor, D. A. Gewirtz, and S. Grant, Proc. Natl. Acad. Sci. USA, 91, 73-77 (1994)), or by determining […] using 3-(4,5-dimethylthiazol-2-yl)-2,5-diphenyl-tetrazolium bromide (MTT) (see T. Mosmann, J. of Immunology, Methods, 65, 55-63 (1983)).
Each value of is the average of 3 or 4 experiments as estimated by protein content.
IC50 represents the concentration of compound required to inhibit cell growth by 50%.

BAF3-bcl2 cells = test system: BAF3-bcl2 cells
Description: (§1) The cells used were identical to those in the preceding example.
(§2) [^14 C]MTOB was prepared by oxidative deamination of [^14 C]Methionine, as described in Ogier et al, Biochem. Pharmacol., 45, 1631-1644 (1993). [^14 C]MTOB (5×10^6 dpm corresponding to 38.2 nmol) was added to a cellular BAF3-bO or BAF3-bcl2 suspension (2.4×10^5 cells/ml) in DMEM containing 6% fetal calf serum and 5% IL3. 39 hours later, the cells were washed twice in PBS and placed in suspension at a concentration of 9×10^5 cells/ml. [U ^14 C]MTOB (1.9×10^6 dpm corresponding to 14.5 nmol) was added to 10^8 cells, and, eight hours later, the cells were collected by centrifugation at 400 g for five minutes. The cellular sediments were solubilized using 1.5 ml of 0.5N NaOh for 30 minutes at 60° C. The total radioactivity in the cells was measured on 10 μl aliquots. Next, perchloric acid in a final concentration of 0.5N, then 200 μmol of 2,4-DNPH (2,4-dinitrophenylhyrazine, marketed by Merck) were added to the alkaline hydrolyzate obtained. The mixture was heated to 70° C. for 30 minutes, then centrifuged at 400 g for five minutes. The precipitate was solubilized ion 1 ml of 0.5N NaOH, and the radioactivity and protein content were determined. NaOH, pH=10, was added to the supernatant. The marked metabolites were extracted in ethylene acetate, and the organic phase was dried, acidified, and extracted in dichloromethane. The marked metabolites in the organic phase were separated out and identified using high-performance thin-layer chromatography and compared to the 2,4-DNPH derivatives of the reference compounds, then quantified by radiochromatography.

BAF3-bO cells = test system: BAF3-bO cells
Description: as §1, §2

BAF3 cells [6] = experiment: DNA fragmentation in BAF3 cells, agarose gel electrophoresis; type: cell-based, mouse; conditions: 200-800 μM, medium with IL3, 8 hours
Description: K. L. Collins, J. Marvel, […] A. Lopez-[…]. Exp. Med., 176, 1043-1051 (1992)]. […] After 8 hours of contact, the cells were washed three times in a phosphatized buffered saline medium, pH=7.5 (PBS medium). […] The supernatants were decanted and analyzed as indicated below. For purposes of comparison, the same cultures were grown in a medium, either with IL3 (+IL3) or without IL3 (-IL3). The DNA fragments obtained were analyzed qualitatively using the method described, in particular, in W. D. Jarvis, […], and S. Grant, Proc. Natl. Acad. Sci. USA, 91, 73-77 (1994). The supernatants were treated with ribonuclease A (20 μg/ml) for 1 hour at 37° C., and with the proteinase R (100 μg/ml). The DNA was purified using phenol extraction and precipitated with ethanol. […] After electrophoresis (60V, 3 hours), the gels were stained with ethydium bromide.

[7] = Table 5, three mice, daily injection for 15 days, Methional 25 mg/kg, control 20.5

Compound: CCC(=O)C(=O)O [2-oxobutyrate]
decrease of growth inhibition (HeLa cells [1]; beginning at 10 mM 2-oxobutyrate, with 2 mM MTOB): 2-3 times

Compound: O=NN(CCCl)C(=O)NCCCl [BCNU, N,N-Bis(2-chloroethyl)-N-nitrosourea]
% apoptotic cells (BAF3 cells [2]): 2.3% | Average Survival Time [3, 7]: 24.5 days | % long-term survivors (mice surviving beyond 60 days) ([3]; Table 6, 6 or 10 mice, Methional 50 mg/kg, control 0): 0% | Average Survival Time ([3]; Table 6, 6 or 10 mice, Methional 50 mg/kg, control 23.7): 32.5 days | Fluorescence/10^6 cells ([4]; BCNU 10 μg/ml): 4% | Fluorescence/10^6 cells ([4]; BCNU 20 μg/ml): 4% | Fluorescence/10^6 cells ([4]; BCNU 40 μg/ml): 10%

Compound: CSCCC(NCc1c(CO)cnc(C)c1O)C(=O)OC(C)(C)C (stereo not drawn) [Compound A]
% apoptotic cells (BAF3 cells [2]): 0.3% | Average Survival Time [3, 7]: 21.9 days | effect on increase of HO^- resulting from increased BCNU concentration ([4]; compound A 50 μM with BCNU): suppressed the increase of HO^-

IC50 (HeLa cells [5]): > 20 mM
Compound: CSCC[C@H](N)C(=O)O [L methionine, L-methionine]

Compound: CSCCC(=O)C(=O)O [MTOB, 4-methylthio-2-oxobutanoic acid]
IC50 (HeLa cells [5]): 1.6 mM | inhibition at 2000 µM (HeLa cells [1]; Homo sapiens, HeLa, 72 h, 2 mM MTOB alone, three days at 37° C.): 72%

IC50 (HeLa cells [5]): 10 mM
Compound: CSCCC(=O)O [MTPA, methylthiopropionic acid]

Compound: CSCCC(=O)C(=O)O [[^14 C]MTOB]
2,4-DNPH malondialdehyde (2,4-DNPH pyrazole) (BAF3-bcl2 cells; BAF3-bcl2): 0 dpm/mg of DNA | 2,4-DNPH methional (BAF3-bcl2 cells; BAF3-bcl2): 7,650 dpm/mg of DNA | Free methional (BAF3-bcl2 cells; BAF3-bcl2): 51,440 dpm/mg of DNA | Spec. activity of cellular proteins (BAF3-bcl2 cells; BAF3-bcl2): 20,850 dpm/mg protein | Total radioactivity/mg of DNA (BAF3-bcl2 cells; BAF3-bcl2, incubation 47 hours): 1,111,000 /mg of DNA | marked malondialdehyde formation, result in words (BAF3-bcl2 cells; BAF3-bcl2 cell extracts): no radioactivity with respect to the malondialdehyde was detected | increase in radioactivity of free methionine (printed metmonine) in BAF3-bcl2 versus BAF3-bO cells (BAF3-bcl2 cells; BAF3-bcl2 compared with BAF3-bO): 40% | 2,4-DNPH malondialdehyde (2,4-DNPH pyrazole) (BAF3-bO cells; BAF3-bO): 800 dpm/mg of DNA | 2,4-DNPH methional (BAF3-bO cells; BAF3-bO): 14,050 dpm/mg of DNA | Free methional (BAF3-bO cells; BAF3-bO): 36,820 dpm/mg of DNA | Spec. activity of cellular proteins (BAF3-bO cells; BAF3-bO): 23,500 dpm/mg protein | radioactivity in methional higher in BAF3-bO than in BAF3-bcl2 cells (BAF3-bO cells; BAF3-bO compared with BAF3-bcl2): 80% | Total radioactivity/mg of DNA (BAF3-bO cells; BAF3-bO, incubation 47 hours): 1,252,000 /mg of DNA

IC50 (HeLa cells [5]): > 20 mM
Compound: CSCCCO [methionol]

Compound: CCCO [propanol]
triggering of apoptosis (ladder of DNA fragments of 180 to 200 base pairs on gel) (BAF3 cells [6]): the gel did not possess this characteristic
